Bases are written 5' to 3'; sugars and linkages follow in the same order, as letters with counts (s phosphorothioate, o phosphodiester; PS: all linkages phosphorothioate). The collection does not say whether C is 5-methylated. l = locked nucleic acid (LNA); d = 2'-deoxy (DNA)

This series has as its target Tau. Briefly: rat primary cortical neurons, FLIPR, 25 uM ASO.
Turning to GTAGACTATTTGCA (sugars l3 d8 l3, PS), the calcium oscillation score is 105 % of control.
For GTAGACTATTTGCAC (sugars l3 d9 l3, PS), the calcium oscillation score was 95.2 % of control.
Then “GTAGACTATTTGCACACTGC (sugars l3 d14 l3, PS)”, with 11.1 % of control; and “GTATCCAGCCATATTTCAAC (sugars l3 d14 l3, PS)”, with 36.7 % of control; and GTCAACTGGTTTGT (sugars l3 d8 l3, PS), with 89.4 % of control.
Then GTCAATTTAAATGGA (sugars l3 d9 l3, PS), with 66.7 % of control.
For GTCACCACTTTAATCT (sugars l4 d9 l3, PS) the value was 85.3 % of control; for GTCACCTTGCTCAGGT (sugars l3 d10 l3, PS), 7.67 % of control.
On to GTCAGCTAGCGTGGCG (sugars l3 d10 l3, PS), for which the calcium oscillation score was 27.6 % of control.
Then GTCATCGCTTCCAGTC (sugars l3 d10 l3, PS), with 85.7 % of control.
Then “GTCCAAACTTTTACTCT (sugars l4 d11 l2, PS)”, with 75.7 % of control; and “GTCCACAAACCAACTCA (sugars l3 d11 l3, PS)”, with 91.3 % of control.
“GTCCAGGGACCCAATCTTCG (sugars l3 d14 l3, PS)”: the calcium oscillation score is 0 % of control.
Then “GTCCCCCAAAATATCTC (sugars l3 d12 l2, PS)”, with 72.1 % of control.
Then GTCCCGAGCCAAAG (sugars l3 d8 l3, PS), with 0 % of control.
For GTCCCGAGCCAAAGC (sugars l3 d9 l3, PS) the value was 31.3 % of control; for GTCCCGAGCCAAAGCC (sugars l3 d10 l3, PS), 31.3 % of control; for GTCCCGTCTTTGCTTT (sugars l3 d10 l3, PS), 31.3 % of control.
In the case of GTCCTAATCCTGTGC (sugars l3 d9 l3, PS), the calcium oscillation score is 36.5 % of control.
Then GTCCTAATCCTGTGCT (sugars l3 d10 l3, PS), with 87.8 % of control; and “GTCCTCACTTTACACATT (sugars l3 d13 l2, PS)”, with 41 % of control; and GTCGATGCTGCCGG (sugars l3 d8 l3, PS), with 36.5 % of control.
Then GTCGATGCTGCCGGTG (sugars l3 d10 l3, PS), with 0 % of control; and “GTCTACCATGTCGATGCTGC (sugars l3 d14 l3, PS)”, with 23.2 % of control.
As to GTCTCAAATCAAACTA (sugars l4 d8 l4, PS), the calcium oscillation score was 60.6 % of control.
In the case of GTCTGAGCTACCAGGA (sugars l3 d10 l3, PS), the calcium oscillation score is 11.7 % of control.
Then GTCTGGCATGGGCAC (sugars l3 d9 l3, PS), with 62.9 % of control; and GTCTGTCTTGGCTTTG (sugars l3 d10 l3, PS), with 0 % of control.
For “GTCTTCACATCCCAACT (sugars l4 d11 l2, PS)” the value was 82.1 % of control; for “GTCTTCCTGAAGGACACCTG (sugars l3 d14 l3, PS)”, 0 % of control.
Then GTCTTGGCTTTGGCGT (sugars l3 d10 l3, PS), with 20.9 % of control; and “GTCTTTATTAACACTCC (sugars l4 d11 l2, PS)”, with 63.3 % of control.
Regarding “GTCTTTGCTTTTACTGACCA (sugars l3 d14 l3, PS)”, the calcium oscillation score was 44.4 % of control.
For GTGACAGAAGAGACGT (sugars l3 d10 l3, PS) the value was 0 % of control; for GTGATATTGTCCAGGG (sugars l3 d10 l3, PS), 14.8 % of control.
As to “GTGATATTGTCCAGGGACCC (sugars l3 d14 l3, PS)”, the calcium oscillation score was 0 % of control.
Then GTGATGCAGGAGTT (sugars l3 d8 l3, PS), with 64.8 % of control.
For GTGATGCAGGAGTTGT (sugars l3 d10 l3, PS) the value was 13.5 % of control; for “GTGATTAACCAATTAACCGA (sugars l3 d14 l3, PS)”, 6.48 % of control.
For GTGGCGGTGACTGCGA (sugars l3 d10 l3, PS) the value was 62.6 % of control; for “GTGGGTGATATTGTCCAGGG (sugars l3 d14 l3, PS)”, 0 % of control; for GTGTTTGATATTATCC (sugars l3 d10 l3, PS), 46.7 % of control.
For GTTAACTCATCAACAC (sugars l4 d9 l3, PS), the calcium oscillation score is 59 % of control.
Then “GTTAACTCATCAACACC (sugars l4 d10 l3, PS)”, with 86.6 % of control; and “GTTAAGTGATTAACCAATTA (sugars l3 d14 l3, PS)”, with 84.3 % of control.
Then GTTAGCCCTAAAGT (sugars l3 d8 l3, PS), with 61 % of control; and GTTAGCCCTAAAGTCC (sugars l3 d10 l3, PS), with 110 % of control; and “GTTAGCCCTAAAGTCCCAGG (sugars l3 d14 l3, PS)”, with 27.9 % of control.
For “GTTATACAGTTGGCCCTACC (sugars l3 d14 l3, PS)”, the calcium oscillation score was 14.3 % of control.
Then GTTGCCTAATGAGCCA (sugars l3 d10 l3, PS), with 46.1 % of control.
Then “GTTGCCTAATGAGCCACACT (sugars l3 d14 l3, PS)”, with 59.8 % of control; and GTTGGATCAGAGGGTC (sugars l3 d10 l3, PS), with 22.2 % of control.
With “GTTTATGATGGATGTTGCCT (sugars l3 d14 l3, PS)”, the calcium oscillation score is 3.32 % of control.
For GTTTGTAGACTATT (sugars l3 d8 l3, PS) the value was 125 % of control; for GTTTGTAGACTATTT (sugars l3 d9 l3, PS), 0 % of control.
For “GTTTTCAAACACACCTT (sugars l3 d10 l4, PS)” the value was 104 % of control; for GTTTTTTAACTCCCAAC (sugars l4 d9 l4, PS), 74.1 % of control.
Then TAAAGTCCCAGGTC (sugars l3 d8 l3, PS), with 72.4 % of control; and TAAAGTCCCAGGTCT (sugars l3 d9 l3, PS), with 124 % of control; and “TAAATACATCAATAGAAGGC (sugars l3 d14 l3, PS)”, with 50.4 % of control.
“TAACCAACTTTCATCTAC (sugars l4 d10 l4, PS)”: the calcium oscillation score is 98.4 % of control.
For “TAACCAACTTTCATCTACTT (sugars l3 d14 l3, PS)” the value was 47.2 % of control; for TAACCAATTAACCGAA (sugars l3 d10 l3, PS), 179 % of control; for “TAACCAATTAACCGAACTGC (sugars l3 d14 l3, PS)”, 125 % of control.
On to “TAACCAGCTAGTGGTGCCAC (sugars l3 d14 l3, PS)”, for which the calcium oscillation score was 18.4 % of control.
Then “TAACTCAAATCAATTCTCAT (sugars l4 d12 l4, PS)”, with 63.9 % of control.
For “TAACTCATCAACACCTTTTA (sugars l4 d14 l2, PS)” the value was 82.6 % of control; for “TAACTCTCCTTATCTGA (sugars l2 d11 l4, PS)”, 29.7 % of control.
Then TAAGGCAAGGCCTATT (sugars l3 d10 l3, PS), with 27.2 % of control.
Regarding “TAAGTGATTAACCAATTAAC (sugars l3 d14 l3, PS)”, the calcium oscillation score was 27.2 % of control.
Then “TAATAGATCTTTCCCCT (sugars l2 d12 l3, PS)”, with 103 % of control; and “TAATAGATCTTTCCCCTC (sugars l2 d13 l3, PS)”, with 101 % of control.
For TAATCACTCATGCCTT (sugars l4 d8 l4, PS) the value was 65.6 % of control; for TAATCACTCATGCCTTA (sugars l4 d9 l4, PS), 62.9 % of control.
As for TAATCCTACCACCAGA (sugars l2 d10 l4, PS), the calcium oscillation score is 86 % of control.
Then TAATCCTGTGCTTC (sugars l3 d8 l3, PS), with 2.3 % of control; and TAATCCTGTGCTTCA (sugars l3 d9 l3, PS), with 86.7 % of control.
For TAATCCTGTGCTTCAG (sugars l3 d10 l3, PS) the value was 75.8 % of control; for “TAATGAGCCACACTTGGAGG (sugars l3 d14 l3, PS)”, 0 % of control.
Consider “TAATTACATTTTTTCTTTTT (sugars l4 d12 l4, PS)”, for which the calcium oscillation score is 58.2 % of control.
Regarding TAATTAGAAACCTCCT (sugars l4 d8 l4, PS), the calcium oscillation score is 73.3 % of control.
Then “TAATTATTAAATCTTCTCTT (sugars l4 d12 l4, PS)”, with 60.1 % of control.
Then “TAATTCACACAACAAACTA (sugars l4 d11 l4, PS)”, with 88.7 % of control; and “TAATTCATAAATGACTATAC (sugars l3 d14 l3, PS)”, with 72.5 % of control.
Take “TAATTCATTTAATTCTCTTC (sugars l4 d12 l4, PS)”: the calcium oscillation score is 60.1 % of control.
For “TAATTCCCAAATTCCTCATA (sugars l2 d14 l4, PS)” the value was 53.9 % of control; for TACAATCCACTCCTCC (sugars l2 d10 l4, PS), 56.4 % of control; for “TACACCATCCAAGTCAA (sugars l3 d10 l4, PS)”, 97 % of control.
Then “TACACCATCCAAGTCAATGC (sugars l3 d14 l3, PS)”, with 6.04 % of control.
For “TACACTGTCCTTTAAAC (sugars l4 d11 l2, PS)” the value was 66.1 % of control; for TACAGTCATTTCATTAC (sugars l4 d9 l4, PS), 64.9 % of control; for “TACAGTTGGCCCTACCATAT (sugars l3 d14 l3, PS)”, 52.4 % of control.
As for TACATGCGTCCTTT (sugars l3 d8 l3, PS), the calcium oscillation score is 91.8 % of control.
Then “TACCAATTATCTTTAAATTC (sugars l4 d12 l4, PS)”, with 64.4 % of control.
As to TACCATGTCGATGCT (sugars l3 d9 l3, PS), the calcium oscillation score was 81.6 % of control.
Then “TACCCATCTTAATTCATTTA (sugars l3 d14 l3, PS)”, with 111 % of control; and TACCCCATTTTTGACA (sugars l3 d11 l2, PS), with 60.9 % of control.
